Read-outs that look alike come from different tables or passages of the source.
Assays:
Human NPY5 receptor = target: T1, Human NPY5 receptor (Homo sapiens, UniProt Q15761); assay: Human NPY5 receptor binding assay ([125I]PYY, membrane protein)
T1 sequence (Q15761 1-445): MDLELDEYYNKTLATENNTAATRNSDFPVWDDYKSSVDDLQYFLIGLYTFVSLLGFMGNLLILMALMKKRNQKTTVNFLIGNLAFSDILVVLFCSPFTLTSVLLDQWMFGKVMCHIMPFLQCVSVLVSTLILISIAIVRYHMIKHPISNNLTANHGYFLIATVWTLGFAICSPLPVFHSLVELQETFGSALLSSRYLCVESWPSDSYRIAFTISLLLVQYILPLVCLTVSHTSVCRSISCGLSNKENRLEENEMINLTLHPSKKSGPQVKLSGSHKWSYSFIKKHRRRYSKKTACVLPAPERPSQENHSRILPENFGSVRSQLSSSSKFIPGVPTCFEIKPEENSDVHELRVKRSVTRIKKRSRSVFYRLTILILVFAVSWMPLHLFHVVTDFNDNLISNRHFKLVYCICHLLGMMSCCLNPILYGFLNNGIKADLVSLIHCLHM
Procedure, shortened: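 Membrane protein was incubated with 75-100 pM porcine [125I]PYY and test compound for 2 hours at room temperature with constant mixing in pH 7.4 Tris buffer containing NaCl, KCl, CaCl2, MgSO4, 0.1% BSA and bacitracin. Nonspecific binding was defined with 1 μM PYY. Bound radioactivity was counted after filtration.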

Y2 receptor = target: T2, Y2 receptor (Homo sapiens, UniProt P49146); assay: Y2 receptor binding assay ([125I]PYY, membrane protein); details: [125I]PYY binding, membrane protein; read-out: hNPY2 IC50
T2 sequence (P49146 1-381): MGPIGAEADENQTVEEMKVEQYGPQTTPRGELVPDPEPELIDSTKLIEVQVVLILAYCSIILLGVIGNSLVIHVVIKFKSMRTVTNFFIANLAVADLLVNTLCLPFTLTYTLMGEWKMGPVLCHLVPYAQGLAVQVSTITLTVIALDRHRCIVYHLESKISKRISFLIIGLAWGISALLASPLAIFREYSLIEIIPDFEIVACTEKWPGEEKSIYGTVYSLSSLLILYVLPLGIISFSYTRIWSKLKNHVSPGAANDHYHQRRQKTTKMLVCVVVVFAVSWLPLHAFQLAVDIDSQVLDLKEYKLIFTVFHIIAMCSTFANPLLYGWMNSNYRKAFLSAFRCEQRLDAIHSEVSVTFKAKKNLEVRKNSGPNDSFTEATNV
Procedure, shortened: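 Filtration binding with membrane protein and drug dilution, 2 h at room temperature with mixing, radioactivity counted by gamma or scintillation. Y2: 25 pM [125I]PYY in Krebs-Ringer bicarbonate pH 7.4 with 0.01% BSA, nonspecific by 1 μM NPY. Y4/PP1: 50 pM [125I]hPP in HEPES-buffered saline pH 7.4 with protease inhibitors and 0.3% BSA, nonspecific by 1 μM hPP.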

[1] = [125I]PYY binding, read-out: hNPY5 IC50

Compound | IC50 (Human NPY5 receptor; [1]) [µM] | IC50 (Y2 receptor) [µM] | IC50 (Human NPY5 receptor; hNPY5 IC50, [125I]PYY binding) [µM]
O=C(CN1CCC(O)(c2cccc(C(F)(F)F)c2)CC1)Nc1ccc(C(=O)c2ccccc2)cc1 [Compound 63, N-(4-Benzoyl-phenyl)-2-[4-hydroxy-4-(3-trifluoromethyl-phenyl)-piperidin-1-yl]-acetamide] | 0.57 | > 5 | 
O=C(CN1CCC(O)CC1)Nc1ccc(C(=O)c2ccccc2)cc1 [Compound 42, N-(4-Benzoyl-phenyl)-2-(4-hydroxy-piperidin-1-yl)-acetamide] | 1.6 | > 5 | 
O=C(CN1C[C@H](O)C[C@H]1C(=O)O)Nc1ccc(C(=O)c2ccccc2)cc1 [Compound 109, (2S,4R)-1-[(4-Benzoyl-phenylcarbamoyl)-methyl]-4-hydroxy-pyrrolidine-2-carboxylic acid] | > 10 | > 5 | 
CCC(=O)C1(c2ccccc2)CCN(CC(=O)Nc2ccc(C(=O)c3ccccc3)cc2)CC1 [Compound 69, N-(4-Benzoyl-phenyl)-2-(4-phenyl-4-propionyl-piperidin-1-yl)-acetamide] | 0.003 | > 5 | 
O=C(CN1CCOCC1)Nc1ccc(C(=O)c2ccccc2)cc1 [Compound 6, N-(4-Benzoyl-phenyl)-2-morpholin-4-yl-acetamide] | 0.8 | > 5 | 
O=C(CN1CCC(O)(Cc2ccccc2)CC1)Nc1ccc(C(=O)c2ccccc2)cc1 [Compound 19, N-(4-Benzoyl-phenyl)-2-(4-benzyl-4-hydroxy-piperidin-1-yl)-acetamide] | 0.4 | > 5 | 
NC(=O)C1CCCN1CC(=O)Nc1ccc(C(=O)c2ccccc2)cc1 (centres unmarked) [Compound 123, 1-[(4-Benzoyl-phenylcarbamoyl)-methyl]-pyrrolidine-2-carboxylic acid amide] | 0.91 | > 5 | 
O=C(CN1CCC(C(=O)N2CCCCC2)(c2ccccc2)CC1)Nc1ccc(C2CCCCC2)cc1 [Compound 72, N-(4-Cyclohexyl-phenyl)-2-[4-phenyl-4-(piperidine-1-carbonyl)-piperidin-1-yl]-acetamide] | 1 | > 5 | 
O=C(CN1CCC(O)(c2ccccc2)CC1)Nc1ccc(C(=O)c2ccccc2)cc1 [Compound 41, N-(4-Benzoyl-phenyl)-2-(4-hydroxy-4-phenyl-piperidin-1-yl)-acetamide] |  | > 5 | 0.06
NC1CCN(CC(=O)Nc2ccc(C(=O)c3ccccc3)cc2)C1 (centres unmarked) [Compound 112, 2-(3-Amino-pyrrolidin-1-yl)-N-(4-benzoyl-phenyl)-acetamide] | 3.9 | > 5 | 
CC1CCN(CC(=O)Nc2ccc(C(=O)c3ccccc3)cc2)CC1 [Compound 50, N-(4-Benzoyl-phenyl)-2-(4-methyl-piperidin-1-yl)-acetamide] | 2.2 | > 5 | 
O=C(CN1CCN(Cc2ccccc2)CC1)Nc1ccc(C(=O)c2ccccc2)cc1 [Compound 16, N-(4-Benzoyl-phenyl)-2-(4-benzyl-piperazin-1-yl)-acetamide] | 9.6 | > 5 | 
O=C(CN1CCC(N2CCCCC2)CC1)Nc1ccc(C2CCCCC2)cc1 [Compound 24, 2-[1,4′]Bipiperidinyl-1′-yl-N-(4-cyclohexyl-phenyl)-acetamide] | 2.9 | > 5 | 
COC[C@@H]1CCCN1CC(=O)Nc1ccc(C(=O)c2ccccc2)cc1 [Compound 104, N-(4-Benzoyl-phenyl)-2-(2S-methoxymethyl-pyrrolidin-1-yl)-acetamide] | 0.49 | > 5 | 
O=C(CN1C[C@H](O)C[C@H]1C(=O)O)Nc1ccc(C2CCCCC2)cc1 [Compound 98, (2S,4R)-1-[(4-Cyclohexyl-phenylcarbamoyl)-methyl]-4-hydroxy-pyrrolidine-2-carboxylic acid] | > 10 | > 5 | 
NC1CCN(CC(=O)Nc2ccc(C3CCCCC3)cc2)C1 (centres unmarked) [Compound 100, 2-(3-Amino-pyrrolidin-1-yl)-N-(4-cyclohexyl-phenyl)-acetamide] | 2.4 | > 5 | 
O=C(CN1CCC[C@H]1C(=O)OCc1ccccc1)Nc1ccc(C(=O)c2ccccc2)cc1 [Compound 106, (2S)-1-[(4-Benzoyl-phenylcarbamoyl)-methyl]-pyrrolidine-2-carboxylic acid benzyl ester] | 3 | > 5 | 
O=C(CNCC1CCNCC1)Nc1ccc(C2CCCCC2)cc1 [Compound 28, N-(4-Cyclohexyl-phenyl)-2-[(piperidin-4-ylmethyl)-amino]-acetamide] | 8.9 | > 5 | 
(2R,4R)-1-[(4-Benzoyl-phenylcarbamoyl)-methyl]-4-hydroxy-pyrrolidine-2-carboxylic acid [Compound 101] | 6.1 | > 5 | 
O=C(CN1CCC[C@H]1C(=O)OCc1ccccc1)Nc1ccc(C2CCCCC2)cc1 [Compound 95, (2S)-1-[(4-Cyclohexyl-phenylcarbamoyl)-methyl]-pyrrolidin-2-carboxylic acid benzyl ester] | 1.6 | > 5 | 
O=C(CN1CCN(c2ccccc2Cl)CC1)Nc1ccc(C(=O)c2ccccc2)cc1 [Compound 8, N-(4-Benzoyl-phenyl)-2-[4-(2-chloro-phenyl)-piperazin-1-yl]-acetamide] | 0.96 | > 5 | 
O=C(CN1CC=C(c2ccc(Cl)cc2)CC1)Nc1ccc(C(=O)c2ccccc2)cc1 [Compound 18, N-(4-Benzoyl-phenyl)-2-[4-(4-chloro-phenyl)-3,6-dihydro-2H-pyridin-1-yl]-acetamide] | 5.2 | > 5 | 
C=C(C)[C@@H]1CN(CC(=O)Nc2ccc(C3CCCCC3)cc2)[C@H](C(=O)O)[C@@H]1CC(=O)O [Compound 115, (2S,3R,4R)-3-Carboxymethyl-1-[(4-cyclohexyl-phenylcarbamoyl)-methyl]-4-isopropenyl-pyrrolidine-2-carboxylic acid] |  | > 5 | > 10
CC1(C)CC(C(N)=O)C(C)(C)N1CC(=O)Nc1ccc(C(=O)c2ccccc2)cc1 (centres unmarked) [Compound 119, 1-[(4-Benzoyl-phenylcarbamoyl)-methyl]-2,2,5,5-tetramethyl-pyrrolidine-3-carboxylic acid amide] | 3.6 | > 5 | 
O=C(CN1CCC(CCCC2CCN(CCO)CC2)CC1)Nc1ccc(C(=O)c2ccccc2)cc1 [Compound 67, N-(4-Benzoyl-phenyl)-2-(4-{3-[1-(2-hydroxy-ethyl)-piperidin-4-yl]-propyl}-piperidin-1-yl)-acetamide] | > 10 | > 5 | 
O=C(CN1CCC[C@H]1C(=O)O)Nc1ccc(C2CCCCC2)cc1 [Compound 99, (2S)-1-[(4-Cyclohexyl-phenylcarbamoyl)-methyl]-pyrrolidine-2-carboxylic acid] | 8.4 | > 5 | 
CC1(C)CC(C(N)=O)C(C)(C)N1CC(=O)Nc1ccc(C2CCCCC2)cc1 (centres unmarked) [Compound 114, 1-[(4-Cyclohexyl-phenylcarbamoyl)-methyl] 2,2,5,5-tetramethyl-pyrrolidine-3-carboxylic acid amide] | 2.4 | > 5 | 
CN(C)C1CCN(CC(=O)Nc2ccc(C(=O)c3ccccc3)cc2)CC1 [Compound 49, N-(4-Benzoyl-phenyl)-2-(4-dimethylamino-piperidin-1-yl)-acetamide] | 8.8 | > 5 | 
